Measured values from US10329278B2, “Pharmaceutical compounds” (Heptares Therapeutics Limited, priority 2017, dated 2019).
Several values for one entry are separate records, joined by “and”; a condition that tells them apart may be missing. Equal values may be shown once. Read-outs that look alike come from different tables or passages of the source.

Columns and labels:
[1] = molecular target: T1, human muscarinic M4 receptor (Homo sapiens, UniProt P08173); assay: Alphascreen Surefire phospho-ERK1/2 functional assay, M4; format: cell-based; details: for EC50 / pEC50 M4 / % Emax cf. ACh (M4): CHO cells stably expressing human M4; for EC50 / pEC50 M4: agonist 5 min, 37° C.; for EC50: read-out: pEC50 M4 (converted); for Emax: CHO
T1 construct: expressed in transfected cells
T1 sequence (P08173 1-479): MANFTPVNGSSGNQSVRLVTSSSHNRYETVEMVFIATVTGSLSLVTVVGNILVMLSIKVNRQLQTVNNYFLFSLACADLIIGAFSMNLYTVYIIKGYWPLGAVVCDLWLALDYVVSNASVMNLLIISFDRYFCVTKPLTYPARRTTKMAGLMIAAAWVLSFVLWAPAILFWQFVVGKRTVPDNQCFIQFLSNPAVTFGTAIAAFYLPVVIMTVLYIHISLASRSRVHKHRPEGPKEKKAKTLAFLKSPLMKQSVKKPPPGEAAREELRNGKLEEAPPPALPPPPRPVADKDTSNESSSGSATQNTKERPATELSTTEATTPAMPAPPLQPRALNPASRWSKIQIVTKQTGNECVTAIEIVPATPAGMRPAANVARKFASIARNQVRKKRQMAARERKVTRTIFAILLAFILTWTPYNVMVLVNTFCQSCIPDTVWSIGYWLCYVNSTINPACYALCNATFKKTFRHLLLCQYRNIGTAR
Procedure: (§1) ERK1/2 phosphorylation is a downstream consequence of both Gq/11 and Gi/o protein coupled receptor activation, making it highly suitable for the assessment of M1, M3 (Gq/11 coupled) and M2, M4 receptors (Gi/o coupled), rather than using different assay formats for different receptor subtypes. CHO cells stably expressing the human muscarinic M1, M2, M3 or M4 receptor were plated (25K/well) onto 96-well tissue culture plates in MEM-alpha+10% dialysed FBS. Once adhered, cells were serum-starved overnight. Agonist stimulation was performed by the addition of 5 μL agonist to the cells for 5 min (37° C.). Media was removed and 50 μL of lysis buffer added. After 15 min, a 4 μL sample was transferred to 384-well plate and 7 μL of detection mixture added.

[2] = molecular target: T2, human muscarinic M1 receptor (Homo sapiens, UniProt P11229); assay: Alphascreen Surefire phospho-ERK1/2 functional assay, M1; format: cell-based; details: for EC50 / pEC50 M1 / % Emax cf. ACh (M1): CHO cells stably expressing human M1; for EC50 / pEC50 M1: agonist 5 min, 37° C.; for EC50: read-out: pEC50 M1 (converted); for Emax: CHO, read-out: % Emax cf. ACh (M1), CHO cells stably expressing human M1; for Emax / % Emax cf. ACh (M1): relative to ACh
T2 sequence (P11229 1-460): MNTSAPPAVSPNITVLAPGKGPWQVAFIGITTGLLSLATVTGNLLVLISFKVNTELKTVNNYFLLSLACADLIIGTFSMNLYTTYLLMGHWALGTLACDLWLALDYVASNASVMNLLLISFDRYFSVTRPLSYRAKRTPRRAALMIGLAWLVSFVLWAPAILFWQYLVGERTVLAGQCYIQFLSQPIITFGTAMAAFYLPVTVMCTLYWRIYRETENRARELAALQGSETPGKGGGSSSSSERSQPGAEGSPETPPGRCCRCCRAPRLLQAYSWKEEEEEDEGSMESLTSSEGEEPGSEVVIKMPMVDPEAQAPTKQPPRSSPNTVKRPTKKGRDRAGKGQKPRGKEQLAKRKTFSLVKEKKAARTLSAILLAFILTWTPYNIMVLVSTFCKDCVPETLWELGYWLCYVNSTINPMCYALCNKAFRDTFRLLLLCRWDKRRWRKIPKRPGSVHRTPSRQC
Procedure: as §1

[3] = read-out: % Emax cf. ACh (M4), CHO cells stably expressing human M4, relative to ACh

| EC50 [1] [µM] | Emax [1, 3] [%] | EC50 [2] [µM] | Emax [2] [%] | pEC50 M4 [1] | % Emax cf. ACh (M4) ([1]; relative to ACh) | pEC50 M1 [2] | % Emax cf. ACh (M1) [2] | Structure (SMILES) | Emax ([1]; read-out: % Emax cf. ACh (M4)) [%] |
| --- | --- | --- | --- | --- | --- | --- | --- | --- | --- |
| 0.708 | 35 | 0.234 | 84 | – | – | – | – | CCOC(=O)N1CCC(N2C[C@@H]3[C@H](C2)[C@H]3C(=O)N(CC)CC)CC1 [Example 4-1] | – |
| – | – | – | – | 5.91 | 81% | 6.30 | 99% | COC(=O)N1C2COCC1CC(N1CC3C(C1)C3C(=O)N(C)C(C)C)C2 (single isomer, unassigned; isomer 1) [10-5 Isomer 1] | – |
| – | – | – | – | 5.47 | 38% | 6.57 | 105% | CCOC(=O)N1C2COCC1CC(N1CC3C(C1)C3C(=O)N(CC)C1CC1)C2 (single isomer, unassigned; isomer 2) [10-9 Isomer 2] | – |
| – | – | – | – | 6.79 | 69% | 7.42 | 99% | CCN(C(=O)C1C2CN(C3CC4COCC(C3)N4C(=O)OC)CC21)C(C)C (single isomer, unassigned; isomer 1) [10-7 Isomer 1] | – |
| – | – | – | – | 5.87 | 41% | 6.56 | 102% | CCOC(=O)N1C2CCCC1CC(N1CC3C(C1)C3C(=O)N(CC)CC)C2 (single isomer, unassigned; isomer 1) [9-2 Isomer 1] | – |
| – | – | – | – | 6.21 | 73% | 5.94 | 56% | CCOC(=O)N1C2CCC1CC(N1CC3C(C1)C3c1csc(C)n1)C2 (single isomer, unassigned; isomer 2) [7-6 Isomer 2] | – |
| – | – | – | – | 5.58 | 45% | 6.78 | 123% | CCOC(=O)N1C2CCC1CC(N1CC3C(C1)C3C(=O)N(CC)CC)C2 (single isomer, unassigned; isomer 1) [7-3 Isomer 1] | – |
| – | – | – | – | 6.12 | 60% | 6.40 | 106% | CCN(CC)C(=O)C1C2CN(C3CC4CCCC(C3)N4C(=O)OC)CC21 (single isomer, unassigned; isomer 1) [9-3 Isomer 1] | – |
| 0.955 | 81 | 0.132 | 110 | – | – | – | – | CCOC(=O)N1CC2(CC(N3C[C@@H]4[C@H](C3)[C@H]4C(=O)N(CC)CC)C2)C1 [Example 1-2, ethyl 6-[(1R,5S,6r)-6-(diethylcarbamoyl)-3-azabicyclo[3.1.0]hex-3-yl]-2-azaspiro[3.3]heptane-2-carboxylate] | – |
| – | – | – | – | 4.85 | 86% | 5.99 | 99% | COC(=O)N1C2COCC1CC(N1CC3C(C1)C3C(=O)N1CCCCC1)C2 (single isomer, unassigned; isomer 2) [10-12 Isomer 2] | – |
| 1.48 | 32 | > 20 | 20 | – | – | – | – | CCOC(=O)N1CCC2(CC(N3CC4C(C3)C4N(CC)CC(F)(F)F)C2)C1 (mixture of isomers) [2-27 Mixture of isomers] | – |
| – | – | – | – | 6.23 | 64% | 6.83 | 100% | CCN(C(=O)C1C2CN(C3CC4COCC(C3)N4C(=O)OC)CC21)C(C)C (single isomer, unassigned; isomer 2) [10-7 Isomer 2] | – |
| 0.437 | 35 | 1.29 | – | – | – | – | 37% | CCOC(=O)N1CCC2(CC(N3CC4C(C3)C4C(CC)=NOC)C2)C1 (single isomer, unassigned) [2-25 Isomer 2] | – |
| – | – | – | – | < 4.70 | 24% and 15% | 5.94 and 5.76 | 110% and 78% | CCOC(=O)N1C2COCC1CC(N1CC3C(C1)C3C(=O)N(C)CC)C2 (single isomer, unassigned; isomer 1) [10-1 Isomer 1] | – |
| – | – | – | – | 5.80 | 62% | 5.67 | 83% | CCOC(=O)C1C2CN(C3CC4CCC(C3)N4C(=O)OCC)CC21 (single isomer, unassigned; isomer 2) [7-1 Isomer 2] | – |
| – | – | – | – | – | – | – | – | CC(=O)OCC[N+](C)(C)C [ACh, acetylcholine, reference compound] | 109 |
| > 20 | – | 0.575 | – | – | 21% | – | 58% | CCOC(=O)N1CCC2(CC(N3CC4C(C3)C4OC(C)c3ccccc3)C2)C1 (single isomer, unassigned) [2-28 Isomer 1] | – |
| – | – | – | – | 6.13 | 38% | < 4.70 | 23% | CCOC(=O)N1C2CCC1CC(N1CC3C(CN(CC)C(C)=O)C3C1)C2 (single isomer, unassigned; isomer 2) [7-5 Isomer 2] | – |
| – | – | – | – | < 4.70 | 14% | 6.11 | 116% | CCOC(=O)N1C2CCC1CC(N1CC3C(C1)C3C(=O)N(C)CC)C2 (single isomer, unassigned; isomer 1) [7-2 Isomer 1] | – |
| – | – | – | – | 4.84 | 47% | 5.99 | 116% | CCOC(=O)N1C2COCC1CC(N1CC3C(C1)C3C(=O)N(C)C1CC1)C2 (single isomer, unassigned; isomer 1) [10-8 Isomer 1] | – |
| – | – | – | – | < 4.70 | 25% | 5.75 | 81% | CCN(CC)C(=O)C1C2CN(C3CC4COCC(C3)N4C(=O)OC)CC21 (single isomer, unassigned; isomer 2) [10-3 Isomer 2] | – |
| 0.617 | 47 | 4.57 | 55 | – | – | – | – | CCOC(=O)N1CC2(CC(N3C[C@@H]4[C@H](C3)[C@H]4c3csc(C)n3)C2)C1 [Example 1-4, ethyl 6-[(1R,5S,6r)-6-(2-methyl-1,3-thiazol-4-yl)-3-azabicyclo[3.1.0]hex-3-yl]-2-azaspiro[3.3]heptane-2-carboxylate] | – |
| – | – | – | – | 5.67 | 32% | 5.65 | 85% | CCOC(=O)N1C2COCC1CC(N1CC3C(C1)C3C(=O)N(C)C1CC1)C2 (single isomer, unassigned; isomer 2) [10-8 Isomer 2] | – |
| – | – | – | – | 4.96 | 53% | 6.66 | 113% | CCOC(=O)N1C2CCC1CC(N1CC3C(C1)C3C(=O)N(C)CC)C2 (single isomer, unassigned; isomer 2) [7-2 Isomer 2] | – |
| – | – | – | – | 4.90 | 90% | 5.66 | 101% | COC(=O)N1C2COCC1CC(N1CC3C(C1)C3C(=O)N(C)C(C)C)C2 (single isomer, unassigned; isomer 2) [10-5 Isomer 2] | – |

| Structure (SMILES) | EC50 [1] [µM] | Emax [1, 3] [%] | EC50 [2] [µM] | Emax [2] [%] | pEC50 M4 [1] | % Emax cf. ACh (M4) ([1]; relative to ACh) | pEC50 M1 [2] | % Emax cf. ACh (M1) [2] | Emax ([1]; read-out: % Emax cf. ACh (M4)) [%] |
| --- | --- | --- | --- | --- | --- | --- | --- | --- | --- |
| CCOC(=O)N1C2CCCC1CC(N1CC3C(C1)C3C(=O)N(C)CC)C2 (single isomer, unassigned; isomer 2) [9-1 Isomer 2] | – | – | – | – | < 4.70 | 24% | 6.01 | 93% | – |
